Common to all, as to assay type: cell-based
For assay [1], the target named is T1, IDO1 (Homo sapiens, UniProt P14902). Description: IDO1 Human Whole Blood Assay. On the set-up: from tissue; host or cells: human whole blood from healthy donors, stimulated with LPS and IFNγ. As to conditions: LPS and IFNγ 100 ng/mL, overnight (18 h), kynurenine by LC/MS/MS. The protocol: IDO1 Human Whole Blood Assay
Compounds to be tested were serially diluted in ten 3-fold steps in DMSO starting from 10 mM. […] LPS and IFNγ was prepared in RPMI to a 10× of final conc. (1000 ng/mL), final concentration is 100 ng/mL.
Human whole blood was drawn in sodium heparin coated tubes from healthy internal donors. […] of blood was transferred to each of the wells of a v-bottom 96 well plate. […] of compound was transferred from intermediate dilution plate, and incubated for 15 min. 30 μL from stimulants was then transferred to blood and mixed thoroughly. Plate was covered with breathable membrane and incubated at 37° C. for overnight (18 h).
On day 2 isotope labeled standard of kynurenine and tryptophan was made in water at 10× concentration and […] was added to the blood at […] final concentration. The assay plates were centrifuged at 300×G for 10 min with no brake to separate plasma from red blood cells. […] of plasma samples was removed without disturbing red blood cells. Plasma was diluted with RPMI in 1:1 ratio and proteins were precipitated out with two volume of Acetonitrile. The plates was centrifuged at 4000×G for 60 min. 20 mL of supernatant was carefully transferred to a 384 well plate contain 40 mL of 0.1% formic acid in water and analyzed by LC/MS/MS.
LC/MS/MS analyses were performed using Thermo Fisher's LX4-TSQ Quantum Ultra system. This system consists of four Agilent binary high-performance liquid chromatography (HPLC) pumps and a TSQ Quantum Ultra triple quadruple MS/MS instrument. For each sample, […] were injected onto an Atlantis T3 column (2.1 mm×150 mm, […]) from Waters. The mobile phase gradient pumped at 0.8 mL/min was used to elute the analytes from the column at 25° C. […] Mobile phase A consisted of 0.1% formic acid in water. Mobile phase B consisted of 0.1% of formic acid in acetonitrile. Data was acquired in positive mode using a HESI interface. The operational parameters for the TSQ Quantum Ultra instrument were a spray voltage of 4000 V, capillary temperature of 380° C., vaporizer temperature 400° C., shealth gas 60 arbitrary units, Aux gas 20 arbitrary units, tube lens 85 and collision gas 1.2 mTorr. […] The peak area was integrated by Xcalibur Quan software. The ratios between the kynurenine generated in the reaction and 2D6-Kynurenine spiked-in internal standard were used to generate percentage inhibition and IC50 values. Compounds were titrated and IC50's were calculated by 4 parameter sigmoidal curve fitting formula.

Assay [2] addresses T2, TDO (Homo sapiens, UniProt P48775).
T2 construct: endogenous in cells; host or cells: SW48 cells (A2780 cells as control with minimal TDO activity)
Description: TDO Cellular Assay in Frozen SW48 Cells. As to conditions: 300 uM L-tryptophan, about 48 hours, fluorescence readout. The protocol: TDO Cellular Assay in Frozen SW48 Cells
SW48 cells were cultured in complete RPMI culture medium (90% RPMI, 10% heat-inactivated fetal bovine serum).
Compounds to be tested were serially diluted in ten 3-fold steps in DMSO starting from 10 mM DMSO stocks in Echo low volume plate(s). […] The cells were spun down at 350 g in a table top centrifuge for 5 minutes and suspended in same volume of RPMI assay medium. […] Sterile L-tryptophan (Sigma, Cat # T0254) was added to the cells with final concentration of 300 uM.
SW48 and A2780 cells were dispensed to the respective wells of 384-well assay plates containing the compounds. The plates were incubated for about 48 hours at a 37° C., 5% CO2 incubator. Afterwards, 12 μL of 0.5 M ethyl isonipecotate (Sigma Aldrich, Cat # E33505) in dimethyl sulfoxide were added into each well and the plates were sealed and incubated at 37° C. without CO2 overnight. The plates were centrifuged for 1 minute at 200×g. The resulting fluorescence was measured in a Spectramax plate reader (Molecular Devices) with a 400 nm excitation filter and a 510 nm emission filter.
The fluorescence intensity of each well was corrected for the background observed in wells with A2780 cells and was expressed as a fraction of the intensity observed in wells of SW48 cells and DMSO only. Potencies were calculated by linear least squares fit to the four parameter logistic IC50 equation.

Assay [3] addresses T1, IDO1. Description: IDO1 Cellular Assay in Hela Cells Stimulated with IFNγ. The following applies: Hela cells stimulated with IFNγ 100 ng/mL, 300 uM L-tryptophan, about 48 hours, fluorescence readout. Also noted: endogenous in cells; host or cells: HeLa cells stimulated with IFNγ (100 ng/mL). The method, then:
IDO1 Cellular Assay in Hela Cells Stimulated with IFNγ
Hela cells were cultured in complete Hela culture medium (90% EMEM, 10% heat-inactivated fetal bovine serum) and expanded to about 1×10^9 cells. The cells were then collected and frozen down at 1×10^7 cells/vial in 1 mL frozen medium (90% complete Hela culture medium, 10% DMSO)
Compounds to be tested were serially diluted in ten 3-fold steps in DMSO starting from 10 mM DMSO stocks in Echo low volume plate(s).
Frozen Hela cells were thawed and transferred into Hela assay medium (99% complete Hela culture medium, 1% Pen/Strep) with 20 mL medium/vial of cells. The cells were spun down at 250 g in a table top centrifuge for 5 min and suspended in same volume of Hela assay medium. The cells were then counted and adjusted to a density of 2×10^5 cells/ml in Hela assay medium. Sterile L-tryptophan were added to the cells with final concentration of 300 uM L-tryptophan. A small aliquot (2 mL/plate) of Hela cells were set aside and were not treated with IFNγ, to serve as the Max-E control.
Hela cells with and without IFNγ were dispensed to the respective wells of 384-well assay plates containing the compounds. The plates were incubated for about 48 hours at a 37° C., 5% CO2 incubator. Afterwards, […] of 0.5 M methyl isonipecotate in dimethyl sulfoxide were added into each well and the plates were sealed and incubated at 37° C. without CO2 overnight. The plates were centrifuged for 1 min at 200×g. The resulting fluorescence was measured in a Spectramax plate reader (Molecular Devices) with a 400 nm excitation filter and a 510 nm emission filter.
Potencies were calculated by linear least squares fit to the four parameter logistic IC50 equation.

Drawing on patent publication US11319283B2, “Substituted cyclobutylbenzene compounds as indoleamine 2,3-dioxygenase (IDO) inhibitors” (MERCK SHARP & DOHME CORP., priority 2017, dated 2022), this text covers IC50 for 18 compounds.

Structures are written as SMILES. pIC50: −log10 of the molar value.

T1 sequence (P14902 whole entry): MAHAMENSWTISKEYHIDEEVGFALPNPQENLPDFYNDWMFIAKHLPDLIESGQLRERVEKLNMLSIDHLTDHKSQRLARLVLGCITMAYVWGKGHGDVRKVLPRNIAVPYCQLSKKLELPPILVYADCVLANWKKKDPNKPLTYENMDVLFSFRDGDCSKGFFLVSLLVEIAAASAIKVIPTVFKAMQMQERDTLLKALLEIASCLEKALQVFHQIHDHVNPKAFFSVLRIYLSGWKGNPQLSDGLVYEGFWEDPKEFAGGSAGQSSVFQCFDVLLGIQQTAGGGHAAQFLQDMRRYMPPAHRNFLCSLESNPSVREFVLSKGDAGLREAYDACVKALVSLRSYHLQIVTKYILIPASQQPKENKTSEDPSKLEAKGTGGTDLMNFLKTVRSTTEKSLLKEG
T2 sequence (P48775 whole entry): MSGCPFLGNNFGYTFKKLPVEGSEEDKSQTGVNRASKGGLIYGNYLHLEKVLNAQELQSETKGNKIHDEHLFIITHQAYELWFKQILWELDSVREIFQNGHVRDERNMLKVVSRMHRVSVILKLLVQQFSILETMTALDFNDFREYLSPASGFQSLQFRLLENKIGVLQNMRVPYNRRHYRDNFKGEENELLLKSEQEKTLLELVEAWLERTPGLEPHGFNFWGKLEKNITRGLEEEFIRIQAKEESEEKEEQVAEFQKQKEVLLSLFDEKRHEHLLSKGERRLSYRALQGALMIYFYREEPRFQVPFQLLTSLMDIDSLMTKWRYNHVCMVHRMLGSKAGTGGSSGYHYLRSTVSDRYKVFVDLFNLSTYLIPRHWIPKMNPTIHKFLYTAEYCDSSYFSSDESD

For `O=C(Nc1ccc(C2(C(=O)N[C@@H]3C[C@H]3C(F)(F)F)CCC2)cc1)c1cccc(Cl)c1` [Example 32], the pIC50 (commonly the negative decadic logarithm of the IC50, by convention in mol/L) is 6.13 in assay [1], at most 5.00 in assay [2] and 7.92 in assay [3].
In the same order, the values of `N#Cc1ccc(C(=O)NC2(c3ccc(NC(=O)c4cccc(Cl)c4)cc3)CCC2)cc1` [Example 2, 3-Chloro-N-(4-(1-(4-cyanobenzamido)cyclobutyl)phenyl)benzamide] are 6.73, at most 5.00 and 8.52.
Taken in the same sequence, the figures for `O=C(Nc1ccc(C2(NC(=O)c3ccc(Cl)cc3)CCC2)cc1)c1cccc(Cl)c1` [Example 19, 3-Chloro-N-(4-(1-(4-chlorobenzamido)cyclobutyl)phenyl)benzamide] were 6.47, at most 5.00 and 8.70.
Taken in the same sequence, the figures for `O=C(Nc1ccc(C2(C(=O)Nc3ccc(F)cn3)CCC2)cc1CO)c1cccc(Cl)c1` [Example 85, 3-chloro-N-[4-{1-[(5-fluoropyridin-2-yl)carbamoyl]cyclobutyl}-2-(hydroxymethyl)phenyl] benzamide] were 6.66, at most 5.00 and 8.30.
With `Cn1ccc(NC(=O)C2(c3ccc(NC(=O)c4cccc(Cl)c4)cc3)CCC2)n1` [Example 35, 3-chloro-N-(4-{1-[(1-methyl-1H-pyrazol-3-yl)carbamoyl]cyclobutyl}phenyl)benzamide], the negative logarithm of the IC50 (pIC50) in assay [1] was 5.79; in assay [2] it was at most 5.00; in assay [3] it was 7.62.
Taken in the same sequence, the figures for `CC1CC1NC(=O)C1(c2ccc(NC(=O)c3cccc(Cl)c3)cc2)CCC1` (single isomer, unassigned) [Example 21, 3-chloro-N-(4-(1-((2-methylcyclopropyl)carbamoyl)cyclobutyl)phenyl)benzamide] were 6.10, at most 5.00 and 8.15.
Taken in the same sequence, the figures for `O=C(Nc1ccc(C2(C(=O)NC3CCC(F)(F)CC3)CCC2)cc1)c1cccc(Cl)c1` [Example 33, 3-chloro-N-(4-{1-[(4,4-difluorocyclohexyl)carbamoyl]cyclobutyl}phenyl) benzamide] were 5.73, at most 5.00 and 7.82.
On to `N#Cc1cccc(C(=O)Nc2ccc(C3(C(=O)Nc4ccc(Cl)nc4)CCC3)cc2)c1` [Example 88, N-(4-{1-[(6-chloropyridin-3-yl)carbamoyl]cyclobutyl}phenyl)-3-cyanobenzamide], for which the pIC50 in assay [1] was 7.24; in assay [2], at most 5.00; in assay [3] it was 8.70.
In the same order, the values of `O=C(Nc1ccc(C2(C(=O)Nc3ccc(F)cn3)CCC2)cc1)c1cccc(Cl)c1` [Example 28, 3-chloro-N-(4-{1-[(5-fluoropyridin-2-yl)carbamoyl]cyclobutyl}phenyl)benzamide] are 6.60, at most 5.00 and 8.40.
Take `N#Cc1cccc(C(=O)Nc2ccc(C3(C(=O)Nc4ccc(F)cc4)CC(F)(F)C3)cc2)c1` [Example 73, 3-cyano-N-(4-{3,3-difluoro-1-[(4-fluorophenyl)carbamoyl]cyclobutyl}phenyl) benzamide]: the figures for the pIC50 in assay [2] and in assay [3] were at most 5.00 and 8.40, respectively.
With `O=C(Nc1ccc(C2(C(=O)NCCC(F)(F)F)CCC2)cc1CO)c1cccc(Cl)c1` [Example 83, 3-Chloro-N-(2-(hydroxymethyl)-4-(1-((3,3,3-trifluoropropyl)carbamoyl)cyclobutyl)phenyl)benzamide], the pIC50 in assay [2] is at most 5.00; in assay [3] it was 6.89.
Taken in the same sequence, the figures for `CCCNC(=O)C1(c2ccc(NC(=O)c3cc(Cl)cc(Cl)c3)cc2)CCC1` [Example 80, 3,5-dichloro-N-{4-[1-(propylcarbamoyl)cyclobutyl]phenyl}benzamide] were at most 5.00 and 7.92.
In the same order, the values of `CCO[C@H]1C[C@@H]1NC(=O)C1(c2ccc(NC(=O)c3cccc(Cl)c3)cc2)CC(F)(F)C1` [Example 67, 3-chloro-N-[4-(1-{[(lS,2S)-2-ethoxycyclopropyl]carbamoyl}-3,3-difluorocyclobutyl)phenyl] benzamide] are at most 5.00 and 6.68.
Taken in the same sequence, the figures for `O=C(Nc1ccc(C2(C(=O)NCCC(F)(F)F)CCC2)cc1F)c1cccc(Cl)c1` [Example 82, 3-Chloro-N-(2-fluoro-4-(1-((3,3,3-trifluoropropyl)carbamoyl)cyclobutyl)phenyl)benzamide] were at most 5.00 and 6.93.
`O=C(Nc1ccc(C2(NC(=O)c3cocn3)CCC2)cc1)c1cccc(Cl)c1` [Example 16, N-(1-{4-[(3-chlorobenzene-1-carbonyl)amino]phenyl}cyclobutyl)-1,3-oxazole-4-carboxamide]: the pIC50 in assay [2] is at most 5.00; in assay [3], 7.04.
Taken in the same sequence, the figures for `Cn1ccc(C(=O)NC2(c3ccc(NC(=O)c4cccc(Cl)c4)cc3)CCC2)n1` [Example 13, N-(1-{4-[(3-chlorobenzene-1-carbonyl)amino]phenyl}cyclobutyl)-1-methyl-1H-pyrazole-3-carboxamide] were at most 5.00 and 7.52.
In the same order, the values of `CC1(C)CC(NC(=O)C2(c3ccc(NC(=O)c4cccc(Cl)c4)cc3)CCC2)CCO1` (stereo not drawn) [Example 42, 3-chloro-N-(4-{1-[(2,2-dimethyloxan-4-yl)carbamoyl]cyclobutyl}phenyl)benzamide] are at most 5.00 and 6.92.
In the same order, the values of `O=C(Nc1ccc(C2(NC(=O)c3ccc(F)c(F)c3)CCC2)cc1)c1cccc(Cl)c1` [Example 10, N-(1-{4-[(3-chlorobenzene-1-carbonyl)amino]phenyl}cyclobutyl)-3,4-difluorobenzamide] are at most 5.00 and 7.85.
